In paper PMC5920042, “KH176 Safeguards Mitochondrial Diseased Cells from Redox Stress-Induced Cell Death by Interacting with the Thioredoxin System/Peroxiredoxin Enzyme Machinery” (Scientific Reports, 2018):
Like-named read-outs stand apart in the source and are kept apart here.

What was measured:
[1] = Single dose pharmacokinetics and bioavailability study; format: in vivo, male C57BL/6 mice; conditions: male, mouse
Method: (§1) Pharmacokinetics and toxicokinetics measurements were performed by the commercial Contract Research Organizations Sai Life Sciences and WuXi AppTec, respectively, according to their standard protocols and in accordance with relevant guidelines and regulations. C57 BL/6 mice, Sprague Dawley rats, and Beagle dogs were studied.

P4 cell line [2] = test: Redox Stress Survival assay (BSO-induced cell death, Calcein AM viability); format: cell-based, human; conditions: for EC50: 24 h, P4 cells, 200 µM BSO
Method: Cells were seeded at a density of 4 × 10^3 cells/well into 96-wells black plates and incubated for 24 h. To induce redox stress, semi-logarithmic dilutions of buthionine sulphoximine (BSO, #B2515, Sigma Aldrich) up to 100 µM were added to the cells in culture medium and incubated for 24 h. Cell viability was assessed by quantification of cellular conversion of Calcein AM into fluorescent Calcein. Briefly, after having discarded the BSO containing medium, cells were washed once with M199 without phenol red and loaded with 2 µM Calcein AM (#65-0853-39, Affimetrix eBioscience) in M199 without phenol red for 25 min. At the end of the incubation period, the excess of the dye was washed with M199 without phenol red and Calcein fluorescence was measured with a scanning microplate reader (BMG FLUOstar Omega; Ex. 480 nm, Em. 520 nm). For compound screening and target identification measurements cells were treated with 200 µM BSO alone or in co-incubation with semi-logarithmic dilutions of the test compound. Additionally, where indicated, increasing doses of Auranofin (AFN, #BML-EI206-0100, Enzo) or Aurothioglucose (ATG, #A0606, Sigma Aldrich) were co-incubated with BSO and the test compound. In all cases, cell viability was assessed 24 h after the treatment.

[3] = tested on: primary human skin fibroblasts; test: Mitochondrial superoxide detection by mitoSOX oxidation; format: cell-based; conditions: 30 min preincubation, no external stimulus
Method: The cells were seeded at a density of 3 × 10^3 cells/well into 96-wells black plates. After 24 h, the cells were incubated with different amounts of KH176(m) in M199 without phenol red. This medium was used in all subsequent washes and incubations. After 30 min. incubation the cells were washed and subsequently incubated 1 µM mitoSOX (#M36008, ThermoFisher). […] After 10 min incubation the cells were washed twice and incubated for 30 min. to allow the accumulation of oxidized mitoSOX in the mitochondria. […] Wells with cells but without mitoSOX were used for background correction. Experiments were performed at least three times with 3 wells per experiment.

P4 cell line [4] = test: Radical-Scavenging Capacity assay (CM-H2DCFDA, H2O2 or KO2); format: cell-based, human; conditions: P4 cells, 100 µM H2O2 or 1 mM KO2 (text: KOH), 3 µM compound
Method: Cells were seeded at a density of 4 × 10^3 cells/well into 96-wells black plates. After 24 h the cells were loaded with 5 µM CM-H2DCFDA in M199 without phenol red for 20 min. The dye excess was washed with M199 without phenol red and immediately after, cells were treated acutely with different concentrations of the test compounds in M199 without phenol red. To generate radicals, 100 µM H2O2 or 1 mM KO2 were injected to the compound-treated cells and CM-DCF fluorescence was measured every 2 min for 70 cycles on a scanning microplate reader (BMG FLUOstar Omega; Ex. 480 nm, Em. 520 nm). The area under the generated curves was calculated using the Origin 6.1 software (OriginLab).

P4 cell line [5] = test: Cellular ROS assay (DCFH-DA); format: cell-based, human; conditions: Homo sapiens; P4 cells, 24 h compound treatment
Method: The cells were then treated for 72 h (or shorter as indicated) with culture medium containing semi-logarithmic dilutions of the test compound. Alternatively, 3 × 10^3 cells/well were seeded when cells were treated for 24 h only. At the end of the incubation period, cells were loaded with 40 µM DCFH-DA (#D6883, Sigma-Aldrich). in M199 without phenol red for 30 min. The excess of the dye was washed with ice-cold M199 without phenol red and the cells were lysed with 100 µl/well of ice-cold 0.2% Triton X-100 in M199 without phenol red after 10 min incubation in ice. Cellular debris was spun down by centrifugation at 2600 g, 5 min, +4 °C and 90 µl/well of cell lysate were transferred to a black 96-wells plate and DCF fluorescence was measured on a scanning microplate reader (BMG FLUOstar Omega; Ex. 480 nm, Em. 520 nm).

[6] = 28-day repeat oral dose toxicity study, toxicokinetics; format: in vivo, Beagle dogs; conditions: Beagle, dog, plasma, po; for AUC(0-t): read-out: AUC0–24 h; for Cmax: read-out: Cmax
Method: as §1

[7] = C57BL/6, iv, KH176 2 mg/kg i.v., plasma
[8] = C57BL/6, po, KH176 10 mg/kg p.o., plasma
[9] = female, 10 mg/kg, KH176 10 mg/kg/dose BID oral, F, Day 1, plasma
[10] = female, 10 mg/kg, KH176 10 mg/kg/dose BID oral, F, Day 28, plasma
[11] = female, 25 mg/kg, KH176 25 mg/kg/dose BID oral, F, Day 1, plasma
[12] = female, 25 mg/kg, KH176 25 mg/kg/dose BID oral, F, Day 28, plasma
[13] = female, 62.5 mg/kg, KH176 62.5 mg/kg/dose BID oral, F, Day 1, plasma
[14] = female, 62.5 mg/kg, KH176 62.5 mg/kg/dose BID oral, F, Day 28, plasma
[15] = male, 10 mg/kg, KH176 10 mg/kg/dose BID oral, M, Day 1, plasma
[16] = male, 10 mg/kg, KH176 10 mg/kg/dose BID oral, M, Day 28, plasma
[17] = male, 25 mg/kg, KH176 25 mg/kg/dose BID oral, M, Day 1, plasma
[18] = male, 25 mg/kg, KH176 25 mg/kg/dose BID oral, M, Day 28, plasma
[19] = male, 62.5 mg/kg, KH176 62.5 mg/kg/dose BID oral, M, Day 1, plasma
[20] = male, 62.5 mg/kg, KH176 62.5 mg/kg/dose BID oral, M, Day 28, plasma

For `Cc1c(C)c2c(c(C)c1O)CC[C@@](C)(C(=O)N[C@@H]1CCCNC1)O2.Cl` [KH176, (S)-6-hydroxy-2,5,7,8-tetramethyl-N-((R)-piperidin-3-yl)chroman-2-carboxamide hydrochloride], the Kp ([1]; C57BL/6, brain, iv, KH176 2 mg/kg i.v., read-out: Brain to Plasma ratio, range (1–8 hours)) was 1 to 25, the Kp ([1]; C57BL/6, brain, po, KH176 10 mg/kg p.o., read-out: Brain to Plasma ratio, range (1–8 hours)) was 0.4 to 0.8 and the Kp ([1]; C57BL/6, heart, iv, KH176 2 mg/kg i.v., read-out: Heart to Plasma ratio, range (1–8 hours)) was 4.3 to 28.3. The Kp ([1]; C57BL/6, heart, po, KH176 10 mg/kg p.o., read-out: Heart to Plasma ratio, range (1–8 hours)) was 2.4 to 5.7, the AUC(0-inf) [1, 7] was 191 ng·h/mL and the AUC(0-t) [1, 7] was 181 ng·h/mL. For the same compound, the clearance [1, 7] was 175 mL/min/kg, the half-life [1, 7] was 1.4 h and the C0 ([1]; C57BL/6, iv, KH176 2 mg/kg i.v., plasma, back extrapolated) was 543 ng/mL. The Kp ([1]; C57BL/6, liver, iv, KH176 2 mg/kg i.v., read-out: Liver to Plasma ratio, range (1–8 hours)) was 10.5 to 29.3, the Kp ([1]; C57BL/6, liver, po, KH176 10 mg/kg p.o., read-out: Liver to Plasma ratio, range (1–8 hours)) was 5.7 to 12.1 and the Vd ([1]; C57BL/6, plasma, iv, KH176 2 mg/kg i.v., read-out: Vss) was 9.5 L/kg. The bioavailability ([1]; C57BL/6, plasma, oral, 10 mg/kg p.o. vs 2 mg/kg i.v., from AUClast, read-out: F (oral bioavailability)) was 68%, the AUC(0-inf) [1, 8] was 624 ng·h/mL and the AUC(0-t) [1, 8] was 618 ng·h/mL. The Cmax [1, 8] was 414 ng/mL, the Tmax ([1]; C57BL/6, po, KH176 10 mg/kg p.o., plasma, read-out: Tmax) was 0.25 h and the Kp ([1]; C57BL/6, skeletal muscle, iv, KH176 2 mg/kg i.v., read-out: Skeletal muscle to Plasma ratio, range (1–8 hours)) was 8.7 to 20.1. The Kp ([1]; C57BL/6, skeletal muscle, po, KH176 10 mg/kg p.o., read-out: Skeletal muscle to Plasma ratio, range (1–8 hours)) was 0.8 to 5.2, the EC50 (P4 cell line [2]; Homo sapiens) was 269 nM and the EC50 (P4 cell line [2]) was 270 nM. For the same compound, the “Viability of patient cells under BSO” value (P4 cell line [2]; increasing BSO 24 h, 3 µM compound) was “fully protected”, the “Potency on mitochondrial superoxide levels (mitoSOX)” value [3] was “much less potent” and the “Reduction of H2O2-induced radicals and O2.- (CM-H2DCFDA oxidation)” value (P4 cell line [4]) was “able to reduce the levels of both radicals”. It also gave an IC50 (P4 cell line [5]) of 22500 nM, a half-life [6, 9] of 1.4 h and an AUC(0-t) [6, 9] of 8840 ng·h/mL. The Cmax [6, 9] was 1150 ng/mL, the half-life [6, 10] was 2 h and the AUC(0-t) [6, 10] was 14600 ng·h/mL. The Cmax [6, 10] was 1540 ng/mL, the half-life [6, 11] was 1.8 h and the AUC(0-t) [6, 11] was 41900 ng·h/mL. The Cmax [6, 11] was 4150 ng/mL, the half-life [6, 12] was 2.5 h and the AUC(0-t) [6, 12] was 40000 ng·h/mL. It also gave a Cmax [6, 12] of 5190 ng/mL, a half-life [6, 13] of 1.7 h and an AUC(0-t) [6, 13] of 63100 ng·h/mL. It also gave a Cmax [6, 13] of 8150 ng/mL, a half-life [6, 14] of 2.3 h and an AUC(0-t) [6, 14] of 85500 ng·h/mL. It also gave a Cmax [6, 14] of 10200 ng/mL, a half-life [6, 15] of 1.4 h and an AUC(0-t) [6, 15] of 16400 ng·h/mL. The Cmax [6, 15] was 2030 ng/mL, the half-life [6, 16] was 1.8 h and the AUC(0-t) [6, 16] was 19000 ng·h/mL. It also gave a Cmax [6, 16] of 2330 ng/mL, a half-life [6, 17] of 1.8 h and an AUC(0-t) [6, 17] of 42600 ng·h/mL. It also gave a Cmax [6, 17] of 4290 ng/mL, a half-life [6, 18] of 2 h and an AUC(0-t) [6, 18] of 39900 ng·h/mL. The Cmax [6, 18] was 4540 ng/mL, the half-life [6, 19] was 1.8 h and the AUC(0-t) [6, 19] was 91500 ng·h/mL. The Cmax [6, 19] was 10100 ng/mL, the half-life [6, 20] was 2.4 h and the AUC(0-t) [6, 20] was 102000 ng·h/mL. The Cmax [6, 20] was 12600 ng/mL.
